{
  "source": "patent US20130030025A1",
  "about": "“USE OF POTASSIUM CHANNEL BLOCKERS TO TREAT CEREBRAL PALSY” (priority 2011, published 2013)",
  "format_in_all_cases": "in vivo, Sprague Dawley rats",
  "key": {"[1]": {"tested_on": "middle cerebral artery occlusion (MCAO) in rats", "test": "Cylinder test, overall limb-use asymmetry (%) after MCAO", "details": "for Cylinder Test Score (Overall Asymmetry (%)): individual animals", "description": "(§1) 4-AP was evaluated for its ability to promote functional sensorimotor improvement following ischemic stroke in rats with stable motor deficits at times remote from their ischemic events. The animal model mimics the conditions in human ischemic stroke and is produced by middle cerebral artery occlusion (MCAO), which results in extensive infarction in cerebral cortex and striatum, including the cortical spinal tract (white matter). In particular, the MCAO model in Sprague Dawley rats that was utilized in the experiments presented below mimics the conditions in human ischemic stroke. In this experiment, Sprague Dawley rats were anesthetized, subjected to a surgery resulting in middle cerebral artery occlusion (MCAO), treated with and without 4-aminopyridine and behavioral assessments were performed as described below. Surgical Procedure: A small focal stroke (infarct) was made on the right side of the surface of the brain (cerebral cortex) by middle cerebral artery occlusion (MCAO). The right side of the head was shaved with electric clippers (patch of approx 3×5 cm between eye and ear). The region was carefully cleaned with septisol. Using aseptic technique, an incision was made midway between the eye and eardrum canal. The temporalis muscle was isolated, bisected, and reflected. A small window of bone was removed via drill and rongeurs (subtemporal craniectomy) to expose the middle cerebral artery (MCA). Care was taken not to remove the zygomatic arch or to transect the facial nerve that would impair the ability of the animal to chew after surgery. […] The MCA was then transected. The temporalis muscle was then repositioned, and the incision was closed subcutaneously with sutures. The skin incision was closed with surgical staples (2-3 required). Throughout the procedure, body temperature was maintained at 37.0°±1° C., using a self-regulating heating pad connected to a rectal thermometer. Dosing: Rats were treated in accordance with the dosing schedule shown in Tables 1A, 1B, and FIG. 2, with each Phase being a two week period of time. A solution of 4-AP was used in this experiment. Dosing was started at 4 weeks after ischemic event. Treatment groups: Dosing was started 4 weeks after pMCAO surgery. During these 4 weeks, weekly behavioral assessments, as defined below, were performed. Two dose levels of 4-AP plus vehicle control were assessed, with treatment starting at 4 weeks after ischemic event. All dosing was via gastric gavage, volume not to exceed 2 mL/kg. Animals were given the first dose and behavioral assessments were performed starting 60 minutes after dosing. Animals then received the second dose that day at the appropriate time and b.i.d (preferably every 12 hours) thereafter for 2 more days (3 total days of dosing, 5 total doses). One hour after the 5th dose, animals were subjected to behavioral assessments as defined below. Following the final behavioral assessment, drug was withdrawn for 10 or 11 days, behavior was re-assessed, and then animals were re-challenged with a cross-over treatment (Phase II of Table 1B) as described in Tables 1A, 1B, followed by the same behavioral testing and dosing regimen. This cross-over was repeated one more time as well (Phase III of Table 1B) (see FIG. 2). Behavioral test details: Behavioral evaluations were done by investigators blinded to treatment assignment. As described above, behavioral assessments were timed exactly with dosing times. Animals were given the first dose, behavioral assessments were performed starting 60 minutes later, and blood was collected 90 minutes after dosing. Animals then received the second dose that day at the appropriate time and b.i.d (preferably every 12 hours) thereafter for 2 more days (3 total days of dosing, 5 total doses). One hour after the 5th dose, animals were subjected to behavioral testing. […]"}, "[2]": {"tested_on": "middle cerebral artery occlusion (MCAO) in rats", "test": "Forelimb placing test after MCAO", "set-up": "Forelimb Placing Total Score, Mean: scale not given here", "details": "for Forelimb Placing Total Score, Mean: group mean N=15; for Forelimb Placing Total Score: individual animals, 0=normal, 12=maximally impaired", "description": "as §1"}, "[3]": {"tested_on": "middle cerebral artery occlusion (MCAO) in rats", "test": "Hindlimb placing test after MCAO", "set-up": "Hindlimb Placing Total Score, Mean: scale not given here", "details": "Group II", "description": "as §1"}, "[4]": {"details": "Group I, Phase 1, D30, High 4-AP 2.0 mg/kg b.i.d. p.o., after first dose"}, "[5]": {"details": "Group I, Phase 1, D32, High 4-AP 2.0 mg/kg b.i.d. p.o., after 5th dose"}, "[6]": {"details": "Group I, Phase 2, D44, Low 4-AP 0.63 mg/kg b.i.d. p.o., after first dose"}, "[7]": {"details": "Group I, Phase 2, D46, Low 4-AP 0.63 mg/kg b.i.d. p.o., after 5th dose"}},
  "note": "Where “and” joins values, the source holds several entries; their conditions need not be identical. Identical values can stand only once. Entries after “also recorded” stand apart in the source; their conditions may differ.",
  "data": [
    {"smiles": "Nc1ccncc1", "note": "[4-AP, 4-aminopyridine]", "values": [
      {"measurement": "Cylinder Test Score (Overall Asymmetry (%)), Mean", "setting": "[1]; Group II, D30, first dosing phase (low dose, inferred)", "result": 26.98, "unit": "%"},
      {"measurement": "Cylinder Test Score (Overall Asymmetry (%)), Mean", "setting": "[1]; Group II, D32, first dosing phase (low dose, inferred)", "result": 23.50, "unit": "%"},
      {"measurement": "Cylinder Test Score (Overall Asymmetry (%)), Mean", "setting": "[1]; Group II, D58, third dosing phase (high dose, inferred), N 12", "result": 35.52, "unit": "%"},
      {"measurement": "Cylinder Test Score (Overall Asymmetry (%)), Mean", "setting": "[1]; Group II, D60, third dosing phase (high dose, inferred), N 14", "result": 4.43, "unit": "%"},
      {"measurement": "Cylinder Test Score (Overall Asymmetry (%)), Mean", "setting": "[1]; Group III, D44, second dosing phase (high dose, inferred), N 13", "result": 27.98, "unit": "%"},
      {"measurement": "Cylinder Test Score (Overall Asymmetry (%)), Mean", "setting": "[1]; Group III, D46, second dosing phase (high dose, inferred), N 13", "result": 10.17, "unit": "%"},
      {"measurement": "Cylinder Test Score (Overall Asymmetry (%)), Mean", "setting": "[1]; Group III, D58, third dosing phase (low dose, inferred)", "result": 12.32, "unit": "%"},
      {"measurement": "Cylinder Test Score (Overall Asymmetry (%)), Mean", "setting": "[1]; Group III, D60, third dosing phase (low dose, inferred)", "result": 3.23, "unit": "%"},
      {"measurement": "Cylinder Test Score (Overall Asymmetry (%)), Mean", "setting": "[1]; group mean N=10, Group I, Phase 1, D30, High 4-AP 2.0 mg/kg b.i.d. p.o., after first dose", "result": 17.78, "unit": "%"},
      {"measurement": "Cylinder Test Score (Overall Asymmetry (%)), Mean", "setting": "[1]; group mean N=13, Group I, Phase 1, D32, High 4-AP 2.0 mg/kg b.i.d. p.o., after 5th dose", "result": "−15.95", "unit": "%"},
      {"measurement": "Cylinder Test Score (Overall Asymmetry (%)), Mean", "setting": "[1]; group mean N=13, Group I, Phase 2, D46, Low 4-AP 0.63 mg/kg b.i.d. p.o., after 5th dose", "result": 16.29, "unit": "%"},
      {"measurement": "Cylinder Test Score (Overall Asymmetry (%)), Mean", "setting": "[1]; group mean N=15, Group I, Phase 2, D44, Low 4-AP 0.63 mg/kg b.i.d. p.o., after first dose", "result": 10.38, "unit": "%"},
      {"measurement": "Cylinder Test Score (Overall Asymmetry (%))", "setting": "[1]; [4]", "result": "9.33% and 0.00% and 50.00% (3×) and 16.67% and 38.46% and −16.67% and −100.00% and 80.00%"},
      {"measurement": "Cylinder Test Score (Overall Asymmetry (%))", "setting": "[1]; [5]", "result": "36.36% and 24.07% and 22.73% and 5.13% and −30.00% and −100.00% (2×) and 50.00% (2×) and −60.00% and −65.79% and 16.67% and −56.52%"},
      {"measurement": "Cylinder Test Score (Overall Asymmetry (%))", "setting": "[1]; [6]", "result": "60.71% and 25.81% and 39.58% and 22.81% and 31.91% and 33.33% (2×) and 39.02% and −45.45% and −60.00% and −56.06% and 40.00% and 9.30% and 10.00% and −28.57%"},
      {"measurement": "Cylinder Test Score (Overall Asymmetry (%))", "setting": "[1]; [7]", "result": "63.64% and 14.89% and 30.23% and 33.33% (3×) and 36.96% and −8.33% (2×) and 25.00% and −100.00% and 50.00% and 7.69%"},
      {"measurement": "effect on body symmetry and coordination (cylinder test)", "setting": "[1]; rats after MCAO, reversible and dose-dependent", "result": "effective to improve the asymmetry in limb usage"},
      {"measurement": "Forelimb Placing Total Score, Mean", "setting": "[2]; [4]", "result": 3.37},
      {"measurement": "Forelimb Placing Total Score, Mean", "setting": "[2]; [5]", "result": 2.43},
      {"measurement": "Forelimb Placing Total Score, Mean", "setting": "[2]; [6]", "result": 2.37},
      {"measurement": "Forelimb Placing Total Score, Mean", "setting": "[2]; [7]", "result": 2.03},
      {"measurement": "Forelimb Placing Total Score, Mean", "setting": "[2]; Group II, Phase 1, D30, Low 4-AP 0.63 mg/kg b.i.d. p.o., after first dose", "result": 4.20},
      {"measurement": "Forelimb Placing Total Score, Mean", "setting": "[2]; Group II, Phase 1, D32, Low 4-AP 0.63 mg/kg b.i.d. p.o., after 5th dose", "result": 3.43},
      {"measurement": "Forelimb Placing Total Score, Mean", "setting": "[2]; Group II, Phase 3, D58, High 4-AP 2.0 mg/kg b.i.d. p.o., after first dose", "result": 1.90},
      {"measurement": "Forelimb Placing Total Score, Mean", "setting": "[2]; Group II, Phase 3, D60, High 4-AP 2.0 mg/kg b.i.d. p.o., after 5th dose", "result": 1.17},
      {"measurement": "Forelimb Placing Total Score, Mean", "setting": "[2]; Group III, Phase 2, D44, High 4-AP 2.0 mg/kg b.i.d. p.o., after first dose", "result": 2.67},
      {"measurement": "Forelimb Placing Total Score, Mean", "setting": "[2]; Group III, Phase 2, D46, High 4-AP 2.0 mg/kg b.i.d. p.o., after 5th dose", "result": 1.33},
      {"measurement": "Forelimb Placing Total Score, Mean", "setting": "[2]; Group III, Phase 3, D58, Low 4-AP 0.63 mg/kg b.i.d. p.o., after first dose", "result": 2.00},
      {"measurement": "Forelimb Placing Total Score, Mean", "setting": "[2]; Group III, Phase 3, D60, Low 4-AP 0.63 mg/kg b.i.d. p.o., after 5th dose", "result": 1.80},
      {"measurement": "Forelimb Placing Total Score", "setting": "[2]; Group I, Phase 1, D30 post-MCAO, High 4-AP 2.0 mg/kg b.i.d. p.o., 60 min after first dose", "result": "4.50 (4×) and 3.50 (4×) and 4.00 and 5.50 and 3.00 (2×) and 0.50 and 1.00 and 1.50"},
      {"measurement": "Forelimb Placing Total Score", "setting": "[2]; Group I, Phase 1, D32, High 4-AP 2.0 mg/kg b.i.d. p.o., 1 h after 5th dose", "result": "3.00 (4×) and 2.00 (3×) and 3.50 (3×) and 2.50 and 0.50 (3×) and 4.00"},
      {"measurement": "Forelimb Placing Total Score", "setting": "[2]; Group I, Phase 2, D44, Low 4-AP 0.63 mg/kg b.i.d. p.o., 60 min after first dose", "result": "3.50 (2×) and 1.50 (2×) and 4.00 (4×) and 3.00 (2×) and 2.00 and 0.00 (2×) and 0.50 and 1.00"},
      {"measurement": "Forelimb Placing Total Score", "setting": "[2]; Group I, Phase 2, D46, Low 4-AP 0.63 mg/kg b.i.d. p.o., 1 h after 5th dose", "result": "3.50 (2×) and 1.50 (3×) and 3.00 (3×) and 4.00 and 2.50 (2×) and 0.00 (3×) and 1.00"},
      {"measurement": "Forelimb Placing Total Score", "setting": "[2]; Group II, Phase 1, D30, Low 4-AP 0.63 mg/kg b.i.d. p.o., 60 min after first dose", "result": "5.50 (3×) and 4.00 (2×) and 3.50 and 5.00 and 4.50 and 1.50 (2×)"},
      {"measurement": "Forelimb Placing Total Score", "setting": "[2]; Group II, Phase 1, D32, Low 4-AP 0.63 mg/kg b.i.d. p.o., 1 h after 5th dose", "result": "5.50 and 2.00 (2×) and 4.00 and 5.00 and 3.50 and 4.50 and 1.00 (2×) and 3.00"},
      {"measurement": "Forelimb Placing Total Score", "setting": "[2]; Group II, Phase 3, D58, High 4-AP 2.0 mg/kg b.i.d. p.o., 60 min after first dose", "result": "2.50 (2×) and 0.00 (3×) and 1.50 (2×) and 3.00 and 5.00 and 2.00"},
      {"measurement": "Forelimb Placing Total Score", "setting": "[2]; Group II, Phase 3, D60, High 4-AP 2.0 mg/kg b.i.d. p.o., 1 h after 5th dose", "result": "1.00 (4×) and 0.00 (4×) and 1.50 and 3.50"},
      {"measurement": "effect on forelimb function (forelimb placing test)", "setting": "[2]; low or high dose, 4 weeks post ischemic brain injury, rats, dose-responsive, reversible", "result": "effective to improve forelimb function; also recorded: significant improvement"},
      {"measurement": "Hindlimb Placing Total Score", "setting": "[3]; D30, individual animals", "result": "2.50 and 1.50 (4×) and 2.00 (3×) and 1.00 and 0.50"},
      {"measurement": "Hindlimb Placing Total Score, Mean", "setting": "[3]; D30, mean of N 15", "result": 1.73}
    ]}
  ]
}
